# From patent US20230293407A1, “Compositions Comprising (Bio)-Alkanediols with Antimicrobials for Product Protection” (Symrise AG, priority 2020, published 2023)
# Key:
# Test in all cases: preservation efficacy test (PET), European Pharmacopoeia 5.1.3
# Assay type in all cases: cell-based
# Pseudomonas aeruginosa = conditions: for count at 2 days / count at 7 days / count at 14 days / count at 28 days: PA, use concentration in label; for number of microorganisms, 2 days / number of microorganisms, 7 days / number of microorganisms, 14 days / number of microorganisms, 28 days: PET, Pseudomonas aeruginosa (PA)
# Escherichia coli = conditions: for count at 2 days / count at 7 days / count at 14 days / count at 28 days: EC, use concentration in label; for number of microorganisms, 2 days / number of microorganisms, 7 days / number of microorganisms, 14 days / number of microorganisms, 28 days: PET, Escherichia coli (EC)
# Aspergillus brasiliensis = conditions: for count at 2 days / count at 7 days / count at 14 days / count at 28 days: AB, use concentration in label
# Staphylococcus aureus = conditions: for count at 2 days / count at 7 days / count at 14 days / count at 28 days: SA, use concentration in label
# Candida albicans = conditions: for count at 2 days / count at 7 days / count at 14 days / count at 28 days: CA, use concentration in label
# [1] = 2 days after inoculation, o/w emulsion (Table 53)
# [2] = 7 days after inoculation, o/w emulsion (Table 53)
# [3] = 14 days after inoculation, o/w emulsion (Table 53)
# [4] = 28 days after inoculation, o/w emulsion (Table 53)
# [5] = 7 days after inoculation, substance at given % in test formulation, listed as 0.1% 4-Hydroxyacetophenone
# [6] = 14 days after inoculation, substance at given % in test formulation, listed as 0.1% 4-Hydroxyacetophenone
# [7] = 28 days after inoculation, substance at given % in test formulation, listed as 0.1% 4-Hydroxyacetophenone
# [8] = PET, Staphylococcus aureus (SA), 7 days after inoculation
# [9] = PET, Staphylococcus aureus (SA), 14 days after inoculation
# [10] = PET, Staphylococcus aureus (SA), 28 days after inoculation
# [11] = PET, Candida albicans (CA), 7 days after inoculation
# [12] = PET, Candida albicans (CA), 14 days after inoculation
# [13] = PET, Candida albicans (CA), 28 days after inoculation
smiles,measurement,setting,value
CC(=O)CCC(=O)O [0.4% Levulinic Acid],count at 2 days,Pseudomonas aeruginosa; 2 days after inoculation,1
same,count at 7 days,Pseudomonas aeruginosa; 7 days after inoculation,1
same,count at 14 days,Pseudomonas aeruginosa; 14 days after inoculation,1
same,count at 28 days,Pseudomonas aeruginosa; 28 days after inoculation,1
same,count at 2 days,Escherichia coli; 2 days after inoculation,310
same,count at 7 days,Escherichia coli; 7 days after inoculation,1
same,count at 14 days,Escherichia coli; 14 days after inoculation,1
same,count at 28 days,Escherichia coli; 28 days after inoculation,1
same,count at 2 days,Aspergillus brasiliensis; 2 days after inoculation,710.000
same,count at 7 days,Aspergillus brasiliensis; 7 days after inoculation,440.000
same,count at 14 days,Aspergillus brasiliensis; 14 days after inoculation,390.000
same,count at 28 days,Aspergillus brasiliensis; 28 days after inoculation,120.000
same,count at 2 days,Staphylococcus aureus; 2 days after inoculation,45.000
same,count at 7 days,Staphylococcus aureus; 7 days after inoculation,1
same,count at 14 days,Staphylococcus aureus; 14 days after inoculation,1
same,count at 28 days,Staphylococcus aureus; 28 days after inoculation,1
same,count at 2 days,Candida albicans; 2 days after inoculation,240.000
same,count at 7 days,Candida albicans; 7 days after inoculation,220.000
same,count at 14 days,Candida albicans; 14 days after inoculation,240.000
same,count at 28 days,Candida albicans; 28 days after inoculation,38.000
CCCCCCCC(=O)NO [0.4% caprylhydroxamic acid],count at 2 days,Pseudomonas aeruginosa; 2 days after inoculation,1
same,count at 7 days,Pseudomonas aeruginosa; 7 days after inoculation,1
same,count at 14 days,Pseudomonas aeruginosa; 14 days after inoculation,1
same,count at 28 days,Pseudomonas aeruginosa; 28 days after inoculation,1
same,count at 2 days,Escherichia coli; 2 days after inoculation,6.900
same,count at 7 days,Escherichia coli; 7 days after inoculation,1
same,count at 14 days,Escherichia coli; 14 days after inoculation,1
same,count at 28 days,Escherichia coli; 28 days after inoculation,1
same,count at 2 days,Aspergillus brasiliensis; 2 days after inoculation,810.000
same,count at 7 days,Aspergillus brasiliensis; 7 days after inoculation,68.000
same,count at 14 days,Aspergillus brasiliensis; 14 days after inoculation,180
same,count at 28 days,Aspergillus brasiliensis; 28 days after inoculation,1
same,count at 2 days,Staphylococcus aureus; 2 days after inoculation,1
same,count at 7 days,Staphylococcus aureus; 7 days after inoculation,1
same,count at 14 days,Staphylococcus aureus; 14 days after inoculation,1
same,count at 28 days,Staphylococcus aureus; 28 days after inoculation,1
same,count at 2 days,Candida albicans; 2 days after inoculation,210.000
same,count at 7 days,Candida albicans; 7 days after inoculation,1
same,count at 14 days,Candida albicans; 14 days after inoculation,1
same,count at 28 days,Candida albicans; 28 days after inoculation,1
O=P(O)(O)O[C@H]1[C@H](OP(=O)(O)O)[C@@H](OP(=O)(O)O)[C@H](OP(=O)(O)O)[C@@H](OP(=O)(O)O)[C@H]1OP(=O)(O)O [0.4% phytic acid],count at 2 days,Pseudomonas aeruginosa; 2 days after inoculation,1
same,count at 7 days,Pseudomonas aeruginosa; 7 days after inoculation,1
same,count at 14 days,Pseudomonas aeruginosa; 14 days after inoculation,1
same,count at 28 days,Pseudomonas aeruginosa; 28 days after inoculation,1
same,count at 2 days,Escherichia coli; 2 days after inoculation,1
same,count at 7 days,Escherichia coli; 7 days after inoculation,1
same,count at 14 days,Escherichia coli; 14 days after inoculation,1
same,count at 28 days,Escherichia coli; 28 days after inoculation,1
same,count at 2 days,Aspergillus brasiliensis; 2 days after inoculation,510.000
same,count at 7 days,Aspergillus brasiliensis; 7 days after inoculation,290.000
same,count at 14 days,Aspergillus brasiliensis; 14 days after inoculation,180.000
same,count at 28 days,Aspergillus brasiliensis; 28 days after inoculation,150.000
same,count at 2 days,Staphylococcus aureus; 2 days after inoculation,1
same,count at 7 days,Staphylococcus aureus; 7 days after inoculation,1
same,count at 14 days,Staphylococcus aureus; 14 days after inoculation,1
same,count at 28 days,Staphylococcus aureus; 28 days after inoculation,1
same,count at 2 days,Candida albicans; 2 days after inoculation,640.000
same,count at 7 days,Candida albicans; 7 days after inoculation,550.000
same,count at 14 days,Candida albicans; 14 days after inoculation,570.000
same,count at 28 days,Candida albicans; 28 days after inoculation,520.000
"OCCCO [0.8% 1,3-propanediol]",count at 2 days,Pseudomonas aeruginosa; 2 days after inoculation,290
same,count at 7 days,Pseudomonas aeruginosa; 7 days after inoculation,200
same,count at 14 days,Pseudomonas aeruginosa; 14 days after inoculation,180
same,count at 28 days,Pseudomonas aeruginosa; 28 days after inoculation,1
same,count at 2 days,Escherichia coli; 2 days after inoculation,350.000
same,count at 7 days,Escherichia coli; 7 days after inoculation,74.000
same,count at 14 days,Escherichia coli; 14 days after inoculation,4.100
same,count at 28 days,Escherichia coli; 28 days after inoculation,1
same,count at 2 days,Aspergillus brasiliensis; 2 days after inoculation,900.000
same,count at 7 days,Aspergillus brasiliensis; 7 days after inoculation,650.000
same,count at 14 days,Aspergillus brasiliensis; 14 days after inoculation,270.000
same,count at 28 days,Aspergillus brasiliensis; 28 days after inoculation,380
same,count at 2 days,Staphylococcus aureus; 2 days after inoculation,180.000
same,count at 7 days,Staphylococcus aureus; 7 days after inoculation,58.000
same,count at 14 days,Staphylococcus aureus; 14 days after inoculation,820
same,count at 28 days,Staphylococcus aureus; 28 days after inoculation,1
same,count at 7 days,Candida albicans; 7 days after inoculation,650.000
same,count at 14 days,Candida albicans; 14 days after inoculation,630.000
same,count at 28 days,Candida albicans; 28 days after inoculation,1
CC(O)C(=O)[O-].[Na+] (centres unmarked) [0.8% sodium lactate (50%)],count at 2 days,Pseudomonas aeruginosa; 2 days after inoculation,1
same,count at 7 days,Pseudomonas aeruginosa; 7 days after inoculation,1
same,count at 14 days,Pseudomonas aeruginosa; 14 days after inoculation,1
same,count at 28 days,Pseudomonas aeruginosa; 28 days after inoculation,1
same,count at 2 days,Escherichia coli; 2 days after inoculation,440.000
same,count at 7 days,Escherichia coli; 7 days after inoculation,210.000
same,count at 14 days,Escherichia coli; 14 days after inoculation,210.000
same,count at 28 days,Escherichia coli; 28 days after inoculation,850
same,count at 2 days,Aspergillus brasiliensis; 2 days after inoculation,910.000
same,count at 7 days,Aspergillus brasiliensis; 7 days after inoculation,730.000
same,count at 14 days,Aspergillus brasiliensis; 14 days after inoculation,440.000
same,count at 28 days,Aspergillus brasiliensis; 28 days after inoculation,190.000
same,count at 2 days,Staphylococcus aureus; 2 days after inoculation,190.000
same,count at 7 days,Staphylococcus aureus; 7 days after inoculation,150.000
same,count at 14 days,Staphylococcus aureus; 14 days after inoculation,170.000
same,count at 28 days,Staphylococcus aureus; 28 days after inoculation,18.000
same,count at 2 days,Candida albicans; 2 days after inoculation,930.000
same,count at 7 days,Candida albicans; 7 days after inoculation,800.000
same,count at 14 days,Candida albicans; 14 days after inoculation,890.000
same,count at 28 days,Candida albicans; 28 days after inoculation,260.000
"CC(=O)c1ccc(O)cc1 [4-Hydroxyacetophenone, reference compound]","germ count PA, 2 days",Pseudomonas aeruginosa; [1],1
same,"germ count PA, 7 days",Pseudomonas aeruginosa; [2],1
same,"germ count PA, 14 days",Pseudomonas aeruginosa; [3],1
same,"germ count PA, 28 days",Pseudomonas aeruginosa; [4],1
same,"number of microorganisms, 2 days",Pseudomonas aeruginosa; 2 days after inoculation,1
same,"number of microorganisms, 7 days",Pseudomonas aeruginosa; 7 days after inoculation,1
same,"number of microorganisms, 14 days",Pseudomonas aeruginosa; 14 days after inoculation,1
same,"number of microorganisms, 28 days",Pseudomonas aeruginosa; 28 days after inoculation,1
same,"germ count EC, 2 days",Escherichia coli; [1],110.000
same,"EC germ count, 2 days","Escherichia coli; 2 days after inoculation, substance at given % in test formulation, listed as 0.1% 4-Hydroxyacetophenone",110.000
same,"germ count EC, 7 days",Escherichia coli; [2],290
same,"EC germ count, 7 days",Escherichia coli; [5],36
same,"germ count EC, 14 days",Escherichia coli; [3],27
same,"EC germ count, 14 days",Escherichia coli; [6],1
same,"germ count EC, 28 days",Escherichia coli; [4],1
same,"number of microorganisms, 2 days",Escherichia coli; 2 days after inoculation,110.000
same,"number of microorganisms, 7 days",Escherichia coli; 7 days after inoculation,290
same,"number of microorganisms, 14 days",Escherichia coli; 14 days after inoculation,27
same,"number of microorganisms, 28 days",Escherichia coli; 28 days after inoculation,1
same,"AB germ count, 28 days",Aspergillus brasiliensis; [7],910.000
same,"germ count SA, 7 days",Staphylococcus aureus; [2],24.000
same,"SA germ count, 7 days",Staphylococcus aureus; [5],78.000
same,"germ count SA, 14 days",Staphylococcus aureus; [3],1
same,"germ count SA, 28 days",Staphylococcus aureus; [4],1
same,"number of microorganisms, 7 days",Staphylococcus aureus; [8],24.000
same,"number of microorganisms, 14 days",Staphylococcus aureus; [9],1
same,"number of microorganisms, 28 days",Staphylococcus aureus; [10],1
same,"germ count CA, 7 days",Candida albicans; [2],170.000
same,"CA germ count, 7 days",Candida albicans; [5],310.000
same,"germ count CA, 14 days",Candida albicans; [3],130.000
same,"CA germ count, 14 days",Candida albicans; [6],190.000
same,"germ count CA, 28 days",Candida albicans; [4],55.000
same,"CA germ count, 28 days",Candida albicans; [7],100.000
same,"number of microorganisms, 7 days",Candida albicans; [11],170.000
same,"number of microorganisms, 14 days",Candida albicans; [12],130.000
same,"number of microorganisms, 28 days",Candida albicans; [13],55.000
"COc1ccc(C(=O)O)cc1 [anisic acid, reference compound]","number of microorganisms, 2 days",Pseudomonas aeruginosa; 2 days after inoculation,1
same,"number of microorganisms, 7 days",Pseudomonas aeruginosa; 7 days after inoculation,1
same,"number of microorganisms, 14 days",Pseudomonas aeruginosa; 14 days after inoculation,1
same,"number of microorganisms, 28 days",Pseudomonas aeruginosa; 28 days after inoculation,1
same,"number of microorganisms, 2 days",Escherichia coli; 2 days after inoculation,1
same,"number of microorganisms, 7 days",Escherichia coli; 7 days after inoculation,1
same,"number of microorganisms, 14 days",Escherichia coli; 14 days after inoculation,1
same,"number of microorganisms, 28 days",Escherichia coli; 28 days after inoculation,1
same,"number of microorganisms, 2 days","Aspergillus brasiliensis; PET, Aspergillus brasiliensis (AB), 2 days after inoculation",650.000
same,"number of microorganisms, 7 days","Aspergillus brasiliensis; PET, Aspergillus brasiliensis (AB), 7 days after inoculation",360.000
same,"number of microorganisms, 14 days","Aspergillus brasiliensis; PET, Aspergillus brasiliensis (AB), 14 days after inoculation",1
same,"number of microorganisms, 28 days","Aspergillus brasiliensis; PET, Aspergillus brasiliensis (AB), 28 days after inoculation",1
same,"number of microorganisms, 2 days","Staphylococcus aureus; PET, Staphylococcus aureus (SA), 2 days after inoculation",1
same,"number of microorganisms, 7 days",Staphylococcus aureus; [8],1
same,"number of microorganisms, 14 days",Staphylococcus aureus; [9],1
same,"number of microorganisms, 28 days",Staphylococcus aureus; [10],1
same,"number of microorganisms, 2 days","Candida albicans; PET, Candida albicans (CA), 2 days after inoculation",7.000
same,"number of microorganisms, 7 days",Candida albicans; [11],9.000
same,"number of microorganisms, 14 days",Candida albicans; [12],1
same,"number of microorganisms, 28 days",Candida albicans; [13],1
